# Reference: patent publication US7741327B2 (Hoffmann-La Roche Inc., priority 2008, dated 2010)
# Target: T1, Recombinant human liver GK1 (GST-GK) (Homo sapiens, UniProt P35557)
# T1 construct: made in house; host or cells: E. coli
# T1 sequence (P35557 1-466 isoform P35557-2): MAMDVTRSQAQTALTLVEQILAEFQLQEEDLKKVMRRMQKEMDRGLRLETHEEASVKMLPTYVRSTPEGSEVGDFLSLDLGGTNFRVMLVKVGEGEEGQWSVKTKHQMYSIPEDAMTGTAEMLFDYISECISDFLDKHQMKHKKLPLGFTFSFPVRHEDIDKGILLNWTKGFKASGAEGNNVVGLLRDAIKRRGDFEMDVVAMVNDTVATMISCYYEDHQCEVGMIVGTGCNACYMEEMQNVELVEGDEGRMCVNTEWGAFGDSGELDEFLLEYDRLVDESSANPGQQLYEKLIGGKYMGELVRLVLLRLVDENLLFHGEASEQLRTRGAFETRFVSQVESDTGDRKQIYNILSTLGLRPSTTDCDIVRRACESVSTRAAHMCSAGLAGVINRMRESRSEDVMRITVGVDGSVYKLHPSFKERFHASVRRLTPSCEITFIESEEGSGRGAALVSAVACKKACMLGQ
# Experiment: In vitro glucokinase activity (G6PDH-coupled NADH assay)
# Type: biochemical
# Conditions: for SC1.5 (concentration of activator that produced a 50% increase in the activity of GK): 30° C., 5 mM D-glucose, 10% DMSO
# Method: Glucokinase In Vitro Assay Protocol: Glucokinase (GK) was assayed by coupling the production of glucose-6-phosphate to the generation of NADH with glucose-6-phosphate dehydrogenase (G6PDH, 0.75-1 kunits/mg; Boehringer Mannheim, Indianapolis, Ind.) from Leuconostoc mesenteroides as the coupling enzyme (Scheme 2).
# Recombinant human liver GK1 was expressed in E. coli as a glutathione S-transferase fusion protein (GST-GK) [Liang et al, 1995] and was purified by chromatography over a glutathione-Sepharose 4B affinity column using the procedure provided by the manufacturer (Amersham Pharmacia Biotech, Piscataway, N.J.).
# The assay was conducted at 30° C. in a flat bottom 96-well tissue culture plate from Costar (Cambridge, Mass.) with a final incubation volume of 120 μL. The incubation reaction contained the following: 25 mM Hepes buffer (pH 7.1), 25 mM KCl, 5 mM D-glucose, 1 mM ATP, 1.8 mM NAD, 2 mM MgCl2, 1 μM sorbitol-6-phosphate, 1 mM dithiothreitol, test drug or 10% dimethylsulfoxide, ˜7 units/ml G6PDH, and GK (see below). All organic reagents were >98% pure and were from Boehringer Mannheim with the exceptions of D-glucose and Hepes which were from Sigma Chemical Co, St Louis, Mo. Test compounds were dissolved in dimethylsulfoxide and were added to the incubation reaction minus GST-GK in a volume of 12 μL to yield a final dimethylsulfoxide concentration of 10%. This mix was pre-incubated in the temperature controlled chamber of a SPECTRAmax 250 microplate spectrophotometer (Molecular Devices Corporation, Sunnyvale, Calif.) for 10 min to allow temperature equilibrium and then the reaction was started by the addition of 20 μL GST-GK.
# After addition of enzyme, the increase in optical density (OD) at 340 nm was monitored spectrophotometrically to determine the rate of change (OD340 per min). The GK activity (OD340/min) in control wells (10% DMSO minus GK activators) was compared with the activity in wells containing test GK activators, and the concentration of activator that produced a 50% increase in the activity of GK, i.e., the SC1.5, was calculated. The table below provides the in vitro glucokinase activity for the compounds in the Examples: […]
SC1.5 (concentration of activator that produced a 50% increase in the activity of GK) [µM],fold act. @ 30 μM (at 30 μM test compound) [fold],SMILES
0.703,–,"CCO[C@@H](C)C[C@@H](C(=O)Nc1ccn(CC(C)(C)O)n1)N1CC(Oc2cccc(Cl)c2Cl)=CC1=O [Example 95, (2S,4S)-2-[4-(2,3-Dichloro-phenoxy)-2-oxo-2,5-dihydro-pyrrol-1-yl]-4-ethoxy-pentanoic acid [1-(2-hydroxy-2-methyl-propyl)-1H-pyrazol-3-yl]-amide]"
13.732,–,"COC1=CC(=O)N([C@@H](CC2CCCC2)C(=O)Nc2ccn(CCNC(=O)OC(C)(C)C)n2)C1 [Example 7, (2-{3-[(S)-3-Cyclopentyl-2-(4-methoxy-2-oxo-2,5-dihydro-pyrrol-1-yl)-propionylamino]-pyrazol-1-yl}-ethyl)-carbamic acid t-butylester]"
1.708,–,"CC(C)C[C@@H](C(=O)Nc1cnccn1)N1CC(Oc2cccc(CC(C)(C)O)c2)=CC1=O [Example 246, (S)-2-{4-[3-(2-Hydroxy-2-methyl-propyl)-phenoxy]-2-oxo-2,5-dihydro-pyrrol-1-yl}-4-methyl-pentanoic acid pyrazin-2-ylamide]"
6.186,–,COC1=CC(=O)N([C@@H](CC2CCCC2)C(=O)Nc2nc(C)ns2)C1 [Example 4]
0.295,–,"COc1ccccc1OC1=CC(=O)N([C@@H](CC2CCCO2)C(=O)Nc2ccn(CC(C)(C)O)n2)C1 (stereo partly drawn) [Example 179, (S)-N-[1-(2-hydroxy-2-methyl-propyl)-1H-pyrazol-3-yl]-2-[4-(2-methoxy-phenoxy)-2-oxo-2,5-dihydro-pyrrol-1-yl]-3-(tetrahydro-furan-2-yl)-propionamide]"
0.365,–,"CC(C)(O)Cn1ccc(NC(=O)C(CC2CC3CCC2C3)N2CC(Oc3c(F)cccc3F)=CC2=O)n1 (stereo not drawn) [Example 228, 3-Bicyclo[2.2.1]hept-2-yl-2-[4-(2,6-difluoro-phenoxy)-2-oxo-2,5-dihydro-pyrrol-1-yl]-N-[1-(2-hydroxy-2-methyl-propyl)-1H-pyrazol-3-yl]-propionamide]"
2.715,–,"CC(C)(O)Cn1ccc(NC(=O)[C@@H](C[C@H]2C[C@H](C)C2)N2CC(Oc3ccccc3Cl)=CC2=O)n1 (single isomer, unassigned) [Example 216]"
0.26,–,"Cc1cccc(OC2=CC(=O)N([C@@H](CC(C)C)C(=O)Nc3ccn(C[C@@H]4COC(C)(C)O4)n3)C2)c1F [Example 130, (S)-2-[4-(2-Fluoro-3-methyl-phenoxy)-2-oxo-2,5-dihydro-pyrrol-1-yl]-4-methyl-pentanoic acid [1-((R)-2,2-dimethyl-[1,3]dioxolan-4-yl-methyl)-1H-pyrazol-3-yl]-amide]"
1.832,–,"CC(C)OC1=CC(=O)N([C@@H](CC2CCCC2)C(=O)Nc2ccn(CC(C)(C)O)n2)C1 [Example 15, (S)-3-Cyclopentyl-N-[1-(2-hydroxy-2-methyl-propyl)-1H-pyrazol-3-yl]-2-(4-isopropoxy-2-oxo-2,5-dihydro-pyrrol-1-yl)-propionamide]"
1.538,–,"CC1(C)OC[C@@H](Cn2ccc(NC(=O)[C@H](Cc3ccc(F)cc3)N3CC(Oc4ccccc4Cl)=CC3=O)n2)O1 [Example 186, (S)-2-[4-(2-chloro-phenoxy)-2-oxo-2,5-dihydro-pyrrol-1-yl]-N-[1-((R)-2,2-dimethyl-[1,3]dioxolan-4-yl-methyl)-1H-pyrazol-3-yl]-3-(4-fluoro-phenyl)-propionamide]"
0.256,–,"COc1ccc(F)c(OC2=CC(=O)N([C@@H](CC(C)C)C(=O)Nc3ccn(C[C@@H]4COC(C)(C)O4)n3)C2)c1F [Example 118, (S)-2-[4-(2,6-Difluoro-3-methoxy-phenoxy)-2-oxo-2,5-dihydro-pyrrol-1-yl]-4-methyl-pentanoic acid [1-((R)-2,2-dimethyl-[1,3]dioxolan-4-yl-methyl)-1H-pyrazol-3-yl]-amide]"
> 30,1.4,"O=C(Nc1ccn(C[C@@H](O)CO)n1)C(CC(F)(F)F)N1CC(Oc2ccccc2Cl)=CC1=O (stereo partly drawn) [Example 224, 2-[4-(2-Chloro-phenoxy)-2-oxo-2,5-dihydro-pyrrol-1-yl]-N-[1-((R)-2,3-dihydroxy-propyl)-1H-pyrazol-3-yl]-4,4,4-trifluoro-butyramide]"
0.307,–,"CC(C)C[C@@H](C(=O)Nc1ccn(C[C@@H](O)C[C@@H](O)CC(=O)OC(C)(C)C)n1)N1CC(Oc2ccccc2Cl)=CC1=O [Example 193, (3R,5S)-6-(3-{(S)-2-[4-(2-chloro-phenoxy)-2-oxo-2,5-dihydro-pyrrol-1-yl]-4-methyl-pentanoylamino}-pyrazol-1-yl)-3,5-dihydroxy-hexanoic acid t-butyl ester]"
0.06,–,"CC(C)C[C@@H](C(=O)Nc1ccn(C[C@@H](O)CO)n1)N1CC(Oc2cccc3ccccc23)=CC1=O [Example 100, (S)-4-Methyl-2-[4-(naphthalen-1-yloxy)-2-oxo-2,5-dihydro-pyrrol-1-yl]-pentanoic acid [1-((R)-2,3-dihydroxy-propyl)-1H-pyrazol-3-yl]-amide]"
16.668,–,"CC(C)(C)CCC(C(=O)Nc1ccn(C[C@@H](O)CO)n1)N1CC(Oc2ccccc2Cl)=CC1=O (stereo partly drawn) [Example 227, 2-[4-(2-Chloro-phenoxy)-2-oxo-2,5-dihydro-pyrrol-1-yl]-5,5-dimethyl-hexanoic acid [1-((R)-2,3-dihydroxy-propyl)-1H-pyrazol-3-yl]amide]"
0.198,–,"CC(C)C[C@@H](C(=O)Nc1ccn(CC(C)(C)O)n1)N1CC(Oc2c(F)cccc2F)=CC1=O [Example 45, (S)-2-[4-(2,6-difluoro-phenoxy)-2-oxo-2,5-dihydro-pyrrol-1-yl]-4-methyl-pentanoic acid [1-(2-hydroxy-2-methyl-propyl)-1H-pyrazol-3-yl]-amide]"
0.033,–,"COc1cccc(OC2=CC(=O)N(C(CC3CCOCC3)C(=O)Nc3ccn(CC(C)(C)O)n3)C2)c1Cl (stereo not drawn) [Example 50, 2-[4-(2-Chloro-3-methoxy-phenoxy)-2-oxo-2,5-dihydro-pyrrol-1-yl]-N-[1-(2-hydroxy-2-methyl-propyl)-1H-pyrazol-3-yl]-3-(tetrahydro-pyran-4-yl)-propionamide]"
0.071,–,"COC(=O)c1ccc(NC(=O)[C@H](CC2CCOCC2)N2CC(Oc3c(F)cccc3F)=CC2=O)nc1 [Example 41, (S)-6-[2-[4-(2,6-difluoro-phenoxy)-2-oxo-2,5-dihydro-pyrrol-1-yl]-3-(tetrahydro-pyran-4-yl)-propionylamino]-nicotinic acid methyl ester]"
2.061,–,"CC(C)C[C@@H](C(=O)Nc1ccn(C)n1)N1CC(Oc2cccc(CC(C)(C)O)c2)=CC1=O [Example 235, (S)-2-{4-[3-(2-Hydroxy-2-methyl-propyl)-phenoxy]-2-oxo-2,5-dihydro-pyrrol-1-yl}-4-methyl-pentanoic acid (1-methyl-1H-pyrazol-3-yl)-amide]"
2.867,–,"O=C(Nc1ccn(C[C@@H](O)CO)n1)C(CC1(F)CCCC1)N1CC(Oc2c(F)cccc2F)=CC1=O (stereo partly drawn) [Example 159, 2-[4-(2,6-Difluoro-phenoxy)-2-oxo-2,5-dihydro-pyrrol-1-yl]-N-[1-((R)-2,3-dihydroxy-propyl)-1H-pyrazol-3-yl]-3-(1-fluoro-cyclopentyl)-propionamide]"
